Square brackets hold non-standard residues; d marks the D form. Peptide text beside a SMILES is read from it. Phe(4-NO2) = N[C@@H](Cc1ccc([N+](=O)[O-])cc1)C(=O)O; 2Abz = Nc1ccccc1C(=O)O
Legend:
[1] = tested on: Cysteine protease B (Leishmania mexicana); assay: Inhibitory potency against Cysteine protease B, expressed as kinetic constant (kcat/Km)
[2] = compound: C[C@@H](O)[C@H](NC(=O)[C@H](CCCN=C(N)N)NC(=O)[C@H](Cc1ccccc1)NC(=O)[C@H](CCCN=C(N)N)NC(=O)[C@@H]1CCCN1C(=O)[C@@H](N)Cc1ccc([N+](=O)[O-])cc1)C(=O)NCC(=O)N[C@@H](CO)C(=O)N[C@@H](CCCCNC(=O)c1ccccc1N)C(=O)NCC(=O)O; assay: Inhibitory potency against Cysteine protease B, expressed as kinetic constant (Km); conditions: Leishmania mexicana

`C[C@@H](O)[C@H](NC(=O)[C@H](CCCN=C(N)N)NC(=O)[C@H](Cc1ccccc1)NC(=O)[C@H](CCCN=C(N)N)NC(=O)[C@@H]1CCCN1C(=O)[C@@H](N)Cc1ccc([N+](=O)[O-])cc1)C(=O)NCC(=O)N[C@@H](CO)C(=O)N[C@@H](CCCCNC(=O)c1ccccc1N)C(=O)NCC(=O)O` (H-[Phe(4-NO2)]PRFRTGSK(2Abz)G-OH) gave a k cat/Km [1] of 1300 mM/s.

B1: Human rhinovirus A protease (Human rhinovirus sp.), Q4U254 (protein)
chain: AFRPCNVNTKIGNAKCCPFVCGKAVTFKDRSTCSTYNLSSSLHHILEEDKRRRQVVDVMSAIFQGPISLDAPPPPAIADLLQSVRTPRVIKYCQIIMGHPAECQVERDLNIANSIIAIIANIISIAGIIFVIYKLFCSLQGPYSGEPKPKTKVPERRVVAQGPEEEFGRSILKNNTCVITTGNGKFTGLGIHDRILIIPTHADPGREVQVNGVHTKVLDSYDLYNRDGVKLEITVIQLDRNEKFRDIRKYIPETEDDYPECNLALSANQDEPTIIKVGDVVSYGNILLSGNQTARMLKYNYPTKSGYCGGVLYKIGQILGIHVGGNGRDGFSAMLLRSYFTGQIKVNKHATECGLPDIQTIHTPSKTKLQPSVFYDVFPGSKEPAVLTDNDPRLEVNFKEA
With B1 the Km [2] was 1.13 µM.

Source: ChEMBL document CHEMBL1135405, “Solid-phase library synthesis, screening, and selection of tight-binding reduced peptide bond inhibitors of a recombinant Leishmania mexicana cysteine protease B” (J Med Chem, 2002)
